This passage reports IC50 results from patent publication US12065443B2, “Compounds and pharmaceutical compositions thereof for the treatment of diseases” (priority 2017, dated 2024).

Common to all, as to assay: biochemical
One assay addresses T1, SIK3 (Homo sapiens, UniProt Q9Y2K2).
T1 construct: purchased SignalChem S12-11G-100
On the procedure: (§1) The principle of the ^33P radioactive kinase assay consists in measuring the incorporated ^33P into the substrate AMARA peptide when phosphorylated by SIK1, SIK2 or SIK3 using [^33P]-g-ATP, which correlates with kinase activity.
(§2) 1% DMSO and 10 μM staurosporine final concentrations are used as negative and positive controls.
(§3) 11 μL of enzyme-substrate mixture is added on the assay plates. The reactions are started by adding 9 μL ATP mixture, consisting of non-labeled and ^33P-labeled ATP, on the assay plates.
(§4) The reactions are stopped by adding 25 μL phosphoric acid (150 mM) to the reactions.
(§5) After harvesting the kinase reactions, the filter plates are washed 6 times with phosphoric acid (75 mM). […] The top of the plates are sealed with TopSeal-A. Read-out is performed with a TopCount instrument (PerkinElmer Inc.).

A further assay addresses T2, SIK2 (Homo sapiens, UniProt Q9H0K1).
T2 construct: purchased ThermoFisher Scientific PV4792
The settings on record: 33P radioactive SIK kinase assay, AMARA peptide, 10 μM ATP. On the procedure:
as §1, §2, §3, §4, §5

The target in a further assay is T3, SIK1 (Homo sapiens, UniProt P57059).
T3 construct: purchased Carna Biosciences 02-131
T3 sequence (P57059 whole entry): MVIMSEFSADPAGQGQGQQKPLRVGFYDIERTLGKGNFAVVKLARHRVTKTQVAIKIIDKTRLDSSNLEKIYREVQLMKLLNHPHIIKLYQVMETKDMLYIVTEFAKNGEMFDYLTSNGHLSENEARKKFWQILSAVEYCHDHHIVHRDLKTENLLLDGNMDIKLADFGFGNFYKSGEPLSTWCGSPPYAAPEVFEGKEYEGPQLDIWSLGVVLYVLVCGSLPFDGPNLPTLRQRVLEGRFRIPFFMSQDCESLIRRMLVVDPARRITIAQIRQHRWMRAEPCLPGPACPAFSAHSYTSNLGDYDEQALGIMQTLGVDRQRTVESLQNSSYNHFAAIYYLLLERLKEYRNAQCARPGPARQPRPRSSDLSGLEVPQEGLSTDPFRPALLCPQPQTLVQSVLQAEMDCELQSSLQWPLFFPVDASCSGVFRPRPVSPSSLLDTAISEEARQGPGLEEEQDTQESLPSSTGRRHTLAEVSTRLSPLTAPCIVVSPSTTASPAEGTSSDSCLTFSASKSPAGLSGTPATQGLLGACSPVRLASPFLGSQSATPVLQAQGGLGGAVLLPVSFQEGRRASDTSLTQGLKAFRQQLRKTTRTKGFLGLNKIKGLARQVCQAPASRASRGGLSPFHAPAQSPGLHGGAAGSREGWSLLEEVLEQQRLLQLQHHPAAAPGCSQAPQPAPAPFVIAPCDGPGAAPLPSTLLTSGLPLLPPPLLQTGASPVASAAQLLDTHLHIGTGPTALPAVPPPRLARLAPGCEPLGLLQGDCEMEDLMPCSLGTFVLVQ
The note with it: 33P radioactive SIK kinase assay, AMARA peptide, 10 μM ATP; read-out: SIK1 IC50. Here is the method:
as §1, §2, §3, §4, §5

T2 sequence (Q9H0K1 whole entry): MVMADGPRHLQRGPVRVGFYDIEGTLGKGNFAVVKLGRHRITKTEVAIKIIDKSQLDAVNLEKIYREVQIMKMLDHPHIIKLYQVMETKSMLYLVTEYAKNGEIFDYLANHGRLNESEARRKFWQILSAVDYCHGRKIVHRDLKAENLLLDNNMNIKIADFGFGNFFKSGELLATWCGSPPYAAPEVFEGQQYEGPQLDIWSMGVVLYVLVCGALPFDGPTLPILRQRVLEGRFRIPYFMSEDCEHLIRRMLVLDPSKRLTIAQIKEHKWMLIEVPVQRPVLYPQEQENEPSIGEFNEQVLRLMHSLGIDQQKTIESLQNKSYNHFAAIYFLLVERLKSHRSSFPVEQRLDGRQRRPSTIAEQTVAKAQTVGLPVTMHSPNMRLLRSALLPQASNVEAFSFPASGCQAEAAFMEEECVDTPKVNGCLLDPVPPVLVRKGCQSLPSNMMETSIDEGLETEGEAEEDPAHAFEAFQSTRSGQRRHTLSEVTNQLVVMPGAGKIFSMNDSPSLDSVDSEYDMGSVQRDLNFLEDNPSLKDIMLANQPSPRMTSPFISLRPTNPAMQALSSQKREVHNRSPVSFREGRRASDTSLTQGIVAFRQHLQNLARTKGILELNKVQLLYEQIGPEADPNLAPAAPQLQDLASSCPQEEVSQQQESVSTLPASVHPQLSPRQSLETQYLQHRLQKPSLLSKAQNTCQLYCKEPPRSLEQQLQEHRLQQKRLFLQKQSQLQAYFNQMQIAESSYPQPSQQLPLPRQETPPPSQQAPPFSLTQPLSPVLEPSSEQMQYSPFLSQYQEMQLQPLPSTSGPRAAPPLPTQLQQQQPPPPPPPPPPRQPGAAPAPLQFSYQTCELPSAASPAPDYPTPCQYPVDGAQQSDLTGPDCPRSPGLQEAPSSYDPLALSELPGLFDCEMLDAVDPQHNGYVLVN
T1 sequence (Q9Y2K2 whole entry): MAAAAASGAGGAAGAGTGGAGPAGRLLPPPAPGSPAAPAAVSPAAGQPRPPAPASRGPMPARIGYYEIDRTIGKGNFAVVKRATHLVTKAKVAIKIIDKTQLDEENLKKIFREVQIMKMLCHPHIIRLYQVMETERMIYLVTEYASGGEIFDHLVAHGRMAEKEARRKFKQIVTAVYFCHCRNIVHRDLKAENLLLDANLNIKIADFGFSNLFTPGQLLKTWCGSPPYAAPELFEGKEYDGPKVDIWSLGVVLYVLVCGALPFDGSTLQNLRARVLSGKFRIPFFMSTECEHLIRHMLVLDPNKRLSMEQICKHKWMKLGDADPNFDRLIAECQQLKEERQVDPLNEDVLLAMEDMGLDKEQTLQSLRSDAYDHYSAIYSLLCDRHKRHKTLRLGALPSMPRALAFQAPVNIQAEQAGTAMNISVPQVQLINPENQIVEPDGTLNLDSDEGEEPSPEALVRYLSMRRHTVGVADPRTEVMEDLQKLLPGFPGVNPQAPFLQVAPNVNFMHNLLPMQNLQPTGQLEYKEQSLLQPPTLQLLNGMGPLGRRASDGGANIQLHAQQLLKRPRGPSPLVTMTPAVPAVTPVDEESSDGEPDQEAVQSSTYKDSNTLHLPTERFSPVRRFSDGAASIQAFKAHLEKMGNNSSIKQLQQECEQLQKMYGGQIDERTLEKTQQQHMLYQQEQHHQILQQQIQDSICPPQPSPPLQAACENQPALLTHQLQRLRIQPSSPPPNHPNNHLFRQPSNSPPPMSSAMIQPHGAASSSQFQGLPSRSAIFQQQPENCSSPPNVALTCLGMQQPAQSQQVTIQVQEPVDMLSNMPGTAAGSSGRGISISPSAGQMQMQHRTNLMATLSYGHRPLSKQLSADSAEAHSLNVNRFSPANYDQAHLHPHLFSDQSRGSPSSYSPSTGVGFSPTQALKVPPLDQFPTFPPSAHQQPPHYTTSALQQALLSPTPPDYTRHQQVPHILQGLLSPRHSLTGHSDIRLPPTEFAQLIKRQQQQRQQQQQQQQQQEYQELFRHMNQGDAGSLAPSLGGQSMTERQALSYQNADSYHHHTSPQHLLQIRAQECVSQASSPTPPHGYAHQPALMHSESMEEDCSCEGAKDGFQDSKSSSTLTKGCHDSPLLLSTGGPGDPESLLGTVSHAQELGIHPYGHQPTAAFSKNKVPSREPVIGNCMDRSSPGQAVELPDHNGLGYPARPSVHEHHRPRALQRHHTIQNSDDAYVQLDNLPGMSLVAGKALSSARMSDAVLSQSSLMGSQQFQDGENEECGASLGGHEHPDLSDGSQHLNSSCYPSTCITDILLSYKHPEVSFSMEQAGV

Consider `COc1cc(-n2cnc3cc(-c4cnn(C)c4)ccc32)cc(OC)c1C(=O)NCc1ccccn1` [compound 62, 2,6-dimethoxy-4-[5-(1-methylpyrazol-4-yl)benzimidazol-1-yl]-N-(2-pyridylmethyl)benzamide], for which the IC50 at SIK3, at SIK2 and on SIK1 was 100 to 500 nM throughout.

`COc1cc(-n2cnc3cc(-c4cnn(C)c4)ccc32)cc(OC)c1C(=O)NCCCO` [compound 63, N-(3-hydroxypropyl)-2,6-dimethoxy-4-[5-(1-methylpyrazol-4-yl)benzimidazol-1-yl]benzamide]: the results for the IC50 against SIK3, at SIK2 and at SIK1 were 10 to 100 nM, 10 to 100 nM and 100 to 500 nM, respectively.

As to `COc1cc(-n2cnc3cc(-c4cnn(C)c4)ccc32)cc(OC)c1C(=O)NC1CS(=O)(=O)C1` [compound 64, N-(1,1-dioxothietan-3-yl)-2,6-dimethoxy-4-[5-(1-methylpyrazol-4-yl)benzimidazol-1-yl]benzamide], the values for the IC50 against SIK3, at SIK2 and on SIK1 were 10 to 100 nM, 10 to 100 nM and 100 to 500 nM, respectively.

Take `COc1cc(-n2cnc3cc(-c4cnn(C)c4)ccc32)cc(OC)c1C(=O)NCCS(C)(=O)=O` [compound 65, 2,6-dimethoxy-4-[5-(1-methylpyrazol-4-yl)benzimidazol-1-yl)-N-(2-methylsulfonylethyl)benzamide]: the half-inhibitory concentration (IC50) lay in the range of 10 to 100 nM against SIK3, 10 to 100 nM on SIK2 and 100 to 500 nM on SIK1.

With `COc1cc(-n2cnc3cc(-c4cnn(C)c4)ccc32)cc(OC)c1C(=O)NC1CCS(=O)(=O)C1` (stereo not drawn) [compound 66, N-(1,1-dioxothiolan-3-yl)-2,6-dimethoxy-4-[5-(1-methylpyrazol-4-yl)benzimidazol-1-yl]benzamide], the half-inhibitory concentration (IC50) at SIK3, on SIK2 and at SIK1 was 100 to 500 nM each time.

Take `COc1cc(-n2cnc3cc(-c4cnn(C)c4)ccc32)cc(OC)c1C(=O)NC[C@@H]1COCCO1` [compound 67, N-[[(2R)-1,4-dioxan-2-yl]methyl]-2,6-dimethoxy-4-[5-(1-methylpyrazol-4-yl)benzimidazol-1-yl]benzamide]: the IC50 against SIK3, at SIK2 and at SIK1 was 100 to 500 nM in each case.

Turning to `COc1cc(-n2cnc3cc(-c4cnn(C)c4)ccc32)cc(OC)c1C(=O)NC(C)(C)C(F)(F)F` [compound 68, 2,6-dimethoxy-4-[5-(1-methylpyrazol-4-yl)benzimidazol-1-yl]-N-(2,2,2-trifluoro-1,1-dimethyl-ethyl)benzamide], the concentration for half-maximal inhibition (IC50) was 100 to 500 nM against SIK3, over 500 nM on SIK2 and over 500 nM at SIK1.

Regarding `COc1cc(-n2cnc3cc(-c4cnn(C)c4)ccc32)cc(OC)c1C(=O)NC[C@H]1COCCO1` [compound 69, N-[[(2S)-1,4-dioxan-2-yl]methyl]-2,6-dimethoxy-4-[5-(1-methylpyrazol-4-yl)benzimidazol-1-yl]benzamide], the IC50 at SIK3, on SIK2 and on SIK1 was 100 to 500 nM throughout.

For the compound `COc1cc(-n2cnc3cc(-c4cnn(C)c4)ccc32)cc(OC)c1C(=O)NCc1nccn1C` [compound 71, 2,6-dimethoxy-N-[(1-methylimidazol-2-yl)methyl]-4-[5-(1-methylpyrazol-4-yl)benzimidazol-1-yl]benzamide], the half-maximal inhibitory concentration (IC50) against SIK3 is 100 to 500 nM; at SIK2 it was 10 to 100 nM; on SIK1 it was 100 to 500 nM.

As for `COc1cc(-n2cnc3cc(-c4cnn(C)c4)ccc32)cc(OC)c1C(=O)Nc1ccon1` [compound 72, N-isoxazol-3-yl-2,6-dimethoxy-4-[5-(1-methylpyrazol-4-yl)benzimidazol-1-yl]benzamide], the IC50 at SIK3, on SIK2 and at SIK1 was 10 to 100 nM in each case.

On to `COc1cc(-n2cnc3cc(-c4cnn(C)c4)ccc32)cc(OC)c1C(=O)Nc1ccnn1C` [compound 73, 2,6-dimethoxy-N-(2-methylpyrazol-3-yl)-4-[5-(1-methylpyrazol-4-yl)benzimidazol-1-yl]benzamide], for which the IC50 was 100 to 500 nM at SIK3, 100 to 500 nM on SIK2 and over 500 nM on SIK1.

With `COc1cc(-n2cnc3cc(-c4cnn(C)c4)ccc32)cc(OC)c1C(=O)N(C)CC#N` [compound 74, N-(cyanomethyl)-2,6-dimethoxy-N-methyl-4-[5-(1-methylpyrazol-4-yl)benzimidazol-1-yl]benzamide], the results for the half-maximal inhibitory concentration (IC50) at SIK3, at SIK2 and at SIK1 were 10 to 100 nM, 100 to 500 nM and 100 to 500 nM, respectively.

On to `COc1cc(-n2cnc3cc(-c4cnn(C)c4)ccc32)cc(OC)c1C(=O)NCC#N` [compound 75], for which the IC50 on SIK3 was 0.01 to 10 nM; at SIK2, 0.01 to 10 nM; at SIK1 it was 10 to 100 nM.

Take `COc1cc(-n2cnc3cc(-c4cnn(C)c4)ccc32)cc(OC)c1C(=O)NC1CCC1` [compound 77, N-cyclobutyl-2,6-dimethoxy-4-[5-(1-methylpyrazol-4-yl)benzimidazol-1-yl]benzamide]: the 50% inhibitory concentration (IC50) against SIK3, at SIK2 and at SIK1 was 10 to 100 nM throughout.

As to `COc1cc(-n2cnc3cc(-c4cnn(C)c4)ccc32)cc(OC)c1C(=O)NCCF` [compound 79, N-(2-fluoroethyl)-2,6-dimethoxy-4-[5-(1-methylpyrazol-4-yl)benzimidazol-1-yl]benzamide], the values for the concentration for half-maximal inhibition (IC50) on SIK3, on SIK2 and on SIK1 were 0.01 to 10 nM, 0.01 to 10 nM and 10 to 100 nM, respectively.

As for `COc1cc(-n2cnc3cc(-c4cnn(C)c4)ccc32)cc(OC)c1C(=O)Nc1ccn(C)n1` [compound 81, 2,6-dimethoxy-N-(1-methylpyrazol-3-yl)-4-[5-(1-methylpyrazol-4-yl)benzimidazol-1-yl]benzamide], the half-maximal inhibitory concentration (IC50) at SIK3, on SIK2 and at SIK1 was 100 to 500 nM each time.

As for `COc1cc(-n2cnc3cc(-c4cnn(C)c4)ccc32)cc(OC)c1C(=O)Nc1cn(C)cn1` [compound 82, 2,6-dimethoxy-N-(1-methylimidazol-4-yl)-4-[5-(1-methylpyrazol-4-yl)benzimidazol-1-yl]benzamide], the 50% inhibitory concentration (IC50) against SIK3, on SIK2 and at SIK1 was 100 to 500 nM each time.

As for `COc1cc(-n2cnc3cc(-c4cnn(C)c4)ccc32)cc(OC)c1C(=O)Nc1cnn(C)c1` [compound 83, 2,6-dimethoxy-N-(1-methylpyrazol-4-yl)-4-[5-(1-methylpyrazol-4-yl)benzimidazol-1-yl]benzamide], the IC50 against SIK3, on SIK2 and at SIK1 was 100 to 500 nM throughout.

For `COc1cc(-n2cnc3cc(-c4cnn(C)c4)ccc32)cc(OC)c1C(=O)NC(C)C#N` (stereo not drawn) [compound 87, N-(1-cyanoethyl)-2,6-dimethoxy-4-[5-(1-methylpyrazol-4-yl)benzimidazol-1-yl]benzamide], the IC50 against SIK3, on SIK2 and at SIK1 was 10 to 100 nM throughout.

As to `COc1cc(-n2cnc3cc(-c4ccn(C)n4)ccc32)cc(OC)c1C(=O)NCC(F)(F)F` [compound 89, 2,6-dimethoxy-4-[5-(1-methylpyrazol-3-yl)benzimidazol-1-yl]-N-(2,2,2-trifluoroethyl)benzamide], the half-inhibitory concentration (IC50) at SIK3, on SIK2 and on SIK1 was 10 to 100 nM in each case.

Take `COc1cc(-n2cnc3cc(-c4cnn(C)c4)ccc32)cc(OC)c1C(=O)NC1CCCC1(F)F` (stereo not drawn) [compound 90, N-(2,2-difluorocyclopentyl)-2,6-dimethoxy-4-[5-(1-methylpyrazol-4-yl)benzimidazol-1-yl]benzamide]: the IC50 against SIK3, at SIK2 and at SIK1 was 10 to 100 nM throughout.

Turning to `COc1cc(-n2cnc3cc(-c4cnn(C)c4)ccc32)cc(OC)c1C(=O)NC(C)C(F)F` (stereo not drawn) [compound 91, N-(2,2-difluoro-1-methyl-ethyl)-2,6-dimethoxy-4-[5-(1-methylpyrazol-4-yl)benzimidazol-1-yl]benzamide], the IC50 against SIK3, at SIK2 and at SIK1 was 10 to 100 nM throughout.

With `COc1cc(-n2cnc3cc(-c4cnn(C)c4)ccc32)cc(OC)c1C(=O)NC1COC1` [compound 92, 2,6-dimethoxy-4-[5-(1-methylpyrazol-4-yl)benzimidazol-1-yl]-N-(oxetan-3-yl)benzamide], the half-inhibitory concentration (IC50) against SIK3, at SIK2 and at SIK1 was 10 to 100 nM throughout.

As for `COc1cc(-n2cnc3cc(-c4ccnnc4)ccc32)cc(OC)c1C(=O)NCC(F)(F)F` [compound 93, 2,6-dimethoxy-4-(5-pyridazin-4-ylbenzimidazol-1-yl)-N-(2,2,2-trifluoroethyl)benzamide], the half-maximal inhibitory concentration (IC50) against SIK3 was 10 to 100 nM; at SIK2, 10 to 100 nM; on SIK1, 100 to 500 nM.

As for `COc1cc(-n2cnc3cc(-c4cncnc4)ccc32)cc(OC)c1C(=O)NCC(F)(F)F` [compound 104, 2,6-dimethoxy-4-(5-pyrimidin-5-ylbenzimidazol-1-yl)-N-(2,2,2-trifluoroethyl)benzamide], the figures for the IC50 against SIK3, on SIK2 and on SIK1 were 100 to 500 nM, 100 to 500 nM and over 500 nM, respectively.

Take `COc1ncc(-c2ccc3c(c2)ncn3-c2cc(OC)c(C(=O)NCC(F)(F)F)c(OC)c2)cn1` [compound 105, 2,6-dimethoxy-4-[5-(2-methoxypyrimidin-5-yl)benzimidazol-1-yl]-N-(2,2,2-trifluoroethyl)benzamide]: the IC50 is 100 to 500 nM at SIK3, over 500 nM on SIK2 and over 500 nM on SIK1.
